Reference: PMC2074382 (British Journal of Cancer, 1996)
Values joined by “and” are separate entries in the source; they are usually repeats but may differ in a detail not shown here. Equal entries are not always repeated. Structures can show the parent of a compound that is named as a salt.

Assay: Pharmacokinetics (lactone form, HPLC, non-compartmental) in plasma and urine, days 1 and 4 of first course
Conditions: for fe, fraction of the drug excreted unchanged / Clr, renal clearance: Table VI
Text: British Journal of Cancer (1996) 73, 744-750 O (C? 1996 Stockton Press All rights reserved 0007-0920/96 $12.00 Phase I and pharmacological study of the new topoisomerase I inhibitor G1147211, using a daily x 5 intravenous administration CJH Gerrits', GJ Creemers', JHM Schellens', P Wissel2, AS Th Planting', R Kunka2, K Selinger2, M de Boer-Dennert', Y Marijnen3, M Harteveld' and J Verweijl 'Department of Medical Oncology, Rotterdam Cancer Institute, Rotterdam, The Netherlands; 2Glaxo Wellcome Inc, Department of Clinical Pharmacology, NC, USA; 3Glaxo Wellcome Inc, Department of Clinical Research, Zeist, The Netherlands. Summary Topoisomerase I inhibitors are interesting anti-cancer agents with a novel mechanism of action. […] In subsequent patient cohorts the dose was escalated from 0.3 to 1.5 mg m-2 day-'. Pharmacokinetics analysis was performed on days 1 and 4 of the first course using a validated high- performance liquid chromatographic assay and non-compartmental methods. […] Its further development was stopped because of unpredictable and severe myelosuppression, gastrointestinal toxicity and haemorrhagic cystitis. In the late 1980s two discoveries brought about a renewal of interest in CPT; firstly, topoisomerase I was identified as the single cellular target of CPT (Hsiang et al., 1985; Hsiang and Liu, 1988) and, secondly, an overexpression of topoisomerase I was found in various tumour cell lines but not in normal tissues (Giovanella et al., 1989; Hirabayaski et al., 1992; Potmesil et al., 1988). Topoisomerase I is a nuclear enzyme that resolves topological problems of the torsionally strained (supercoiled) DNA (Slichenmyer et al., 1993). This is achieved by forming a covalent adduct between topoisome- rase I and the DNA, termed the cleavable complex. This catalytic intermediate creates single-strand DNA breaks, allowing the DNA molecule to rotate around the intact DNA strand at the cleavage site, leading to a relaxation of the DNA molecule and in this way replication, transcription and other DNA functions can proceed. These enzyme- bridged breaks are then resealed by topoisomerase I. CPT stabilises the cleavable complexes, thereby preventing resealing of single-strand DNA breaks in the presence of the drug (Covey et al., 1989; D'Arpa and Liu, 1989; Eng et al., 1988). Cytotoxicity is specific to the S-phase of the cell cycle because the double-strand breaks that occur during this phase are more difficult to repair in the presence of the drug (Horwitz and Horwitz, 1973). […] Other eligibility criteria included: (1) age>, 18 years; (2) an Eastern Cooperative Oncology Group (ECOG) performance status <2; (3) a predicted life expectancy of at least 3 months; (4) no previous anti-cancer therapy for at least 3 weeks (6 weeks for previous nitro- soureas or mitomycin C); (5) adequate haemato- poietic (WBC) 3 x 109 -', ANC > 1.5 x 109 1-' and platelets 100 x 10 1- 1), hepatic (bilirubin within normal limits, AST, ALT and/or alkaline phosphatase < 2.0 x normal), and renal (serum creatinine < 130 imol 1-') functions. All patients gave written informed consent.

[1] = 1.2 mg m-2, day 1, mean of dose level
[2] = 1.2 mg m-2, day 4, individual patients 7-12 in order
[3] = 1.2 mg m-2, day 4, mean of dose level
[4] = 1.5 mg m-2, day 1, individual patients 13, 15-18 in order
[5] = 1.5 mg m-2, day 1, individual patients 13-18 in order
[6] = 1.5 mg m-2, day 1, mean of dose level
[7] = 1.5 mg m-2, day 4, individual patients 13-18 in order
[8] = 1.5 mg m-2, day 4, mean of dose level
[9] = day 4, individual patients 1-3, 5-12, 16-18 in order

## CC[C@@]1(O)C(=O)OCc2c1cc1n(c2=O)Cc2c-1nc1cc3c(cc1c2CN1CCN(C)CC1)OCCO3 [GI147211, [7 - (methylpiperazinomethylene) - 10,11 - ethylene-dioxy-20(S)] camptothecin dihydrochloride]
[1]
  Cmax, mean: 0.01498 µg/mL
  MRT, mean: 3.47 h
  Vdss, mean: 203 l m-2
  t1/2, mean: 3.45 h
  tmax, mean: 0.39 h
[2]
  AUCinf: 0.02059 µg·h/mL and 0.03783 µg·h/mL and 0.0211 µg·h/mL and 0.01484 µg·h/mL and 0.02662 µg·h/mL and 0.01696 µg·h/mL
  Clearance, total plasma clearance: 971 ml min-1 m-2 and 529 ml min-1 m-2 and 948 ml min-1 m-2 and 1348 ml min-1 m-2 and 802 ml min-1 m-2 and 1179 ml min-1 m-2
  Cmax: 0.01866 µg/mL and 0.02003 µg/mL and 0.01621 µg/mL and 0.00962 µg/mL and 0.01274 µg/mL and 0.01163 µg/mL
  MRT: 3.06 h and 5.62 h and 3.47 h and 3.96 h and 7.06 h and 4.44 h
  Vdss: 163 l m-2 and 167 l m-2 and 182 l m-2 and 299 l m-2 and 307 l m-2 and 291 l m-2
  t1/2, elimination half-life: 3.02 h and 4.07 h and 2.70 h and 2.20 h and 6.99 h and 4.99 h
  tmax: 0.25 h and 0.42 h (5×)
[3]
  AUCinf, mean: 0.02299 µg·h/mL
  Clearance, mean: 963 ml min-1 m-2
  Cmax, mean: 0.01482 µg/mL
  MRT, mean: 4.60 h
  Vdss, mean: 235 l m-2
  t1/2, mean: 3.99 h
  tmax, mean: 0.39 h
[4]
  AUCinf: 0.02466 µg·h/mL and 0.02439 µg·h/mL and 0.02332 µg·h/mL and 0.02264 µg·h/mL and 0.02837 µg·h/mL
  Clearance, total plasma clearance: 1014 ml min-1 m-2 and 1025 ml min-1 m-2 and 1072 ml min-1 m-2 and 1104 ml min-1 m-2 and 881 ml min-1 m-2
  MRT: 5.11 h and 3.57 h and 3.32 h and 3.65 h and 3.78 h
  Vdss: 296 l m-2 and 204 l m-2 and 197 l m-2 and 225 l m-2 and 186 l m-2
  t1/2, elimination half-life: 4.98 h and 4.62 h and 4.37 h and 4.61 h and 4.42 h
[5]
  Cmax: 0.01508 µg/mL and 0.02748 µg/mL and 0.01921 µg/mL and 0.01953 µg/mL and 0.01891 µg/mL and 0.0159 µg/mL
  tmax: 0.25 h (3×) and 0.42 h (2×) and 0.75 h
[6]
  AUCinf, mean: 0.02468 µg·h/mL
  Clearance, mean: 1019 ml min-1 m-2
  Cmax, mean: 0.01935 µg/mL
  MRT, mean: 3.89 h
  Vdss, mean: 222 l m-2
  t1/2, mean: 4.60 h
  tmax, mean: 0.39 h
[7]
  AUCinf: 0.02692 µg·h/mL and 0.02951 µg·h/mL and 0.03085 µg·h/mL and 0.03451 µg·h/mL and 0.02485 µg·h/mL and 0.0527 µg·h/mL
  Clearance, total plasma clearance: 929 ml min-1 m-2 and 847 ml min-1 m-2 and 810 ml min-1 m-2 and 724 ml min-1 m-2 and 1006 ml min-1 m-2 and 474 ml min-1 m-2
  Cmax: 0.02002 µg/mL and 0.02381 µg/mL and 0.02541 µg/mL and 0.03219 µg/mL and 0.02118 µg/mL and 0.02825 µg/mL
  MRT: 5.06 h and 2.56 h and 3.04 h and 4.47 h and 5.75 h and 4.74 h
  Vdss: 261 l m-2 and 117 l m-2 and 144 l m-2 and 178 l m-2 and 319 l m-2 and 126 l m-2
  t1/2, elimination half-life: 4.95 h and 3.44 h and 4.35 h and 5.62 h and 5.82 h and 4.43 h
  tmax: 0.42 h (4×) and 0.25 h (2×)
[8]
  AUCinf, mean: 0.03322 µg·h/mL
  Clearance, mean: 798 ml min-1 m-2
  Cmax, mean: 0.02514 µg/mL
  MRT, mean: 4.27 h
  Vdss, mean: 191 l m-2
  t1/2, mean: 4.77 h
  tmax, mean: 0.36 h
0.3-1.5 mg m-2, Figure 3 day 4 of course 1
  relation of AUC to the dose: linearly related to the dose
abstract, all patients
  terminal half-life: 3.7 ± 1.2 h
  total plasma clearance: 999 ± 184 mL/min
  total plasma clearance, range: 640 to 1329 mL/min
  volume of distribution: 190+/-461 m-2
Day 1
  fraction of the drug excreted unchanged in the urine (fe): 0.14 ± 0.07
  renal clearance: 140+74 ml min-1 m-2
Day 1, Table VI
  Clr, mean: 251 ml min-1 and 140 ml min-1 m-2
  fe, mean: 0.143
Day 1, all dose levels
  Total plasma clearance (mean+s.d.): 1014+ 177.0 ml min-1 m-2
  Vdss (mean+s.d.): 193+ 45.9 l m-2
  mean residence time (MRT) (mean+s.d.): 3.53+0.93 h
  t1/2 (mean+s.d.): 3.54+0.99 h
Day 1, individual patients 1-12, 14, 15 in order
  fe, fraction of the drug excreted unchanged: 0.114 and 0.081 and 0.212 and 0.115 and 0.156 and 0.149 and 0.106 and 0.101 and 0.088 and 0.085 and 0.116 and 0.347 and 0.191 and 0.135
Day 1, individual patients 1-12, 15 in order
  Clr, renal clearance: 232 ml min-1 and 116 ml min-1 m-2 and 184 ml min-1 and 101 ml min-1 m-2 (2×) and 333 ml min-1 and 222 ml min-1 m-2 and 231 ml min-1 and 115 ml min-1 m-2 and 161 ml min-1 and 194 ml min-1 and 107 ml min-1 m-2 (2×) and 201 ml min-1 and 122 ml min-1 m-2 and 151 ml min-1 and 84 ml min-1 m-2 and 203 ml min-1 and 226 ml min-1 and 113 ml min-1 m-2 and 208 ml min-1 and 119 ml min-1 m-2 and 663 ml min-1 and 358 ml min-1 m-2 and 280 ml min-1 and 150 ml min-1 m-2
Day 4, Table VI
  Clr, mean: 244 ml min-1 and 138 ml min-1 m-2
[9]
  Clr, renal clearance: 175 ml min-1 and 88 ml min-1 m-2 and 128 ml min-1 and 70 ml min-1 m-2 and 430 ml min-1 and 287 ml min-1 m-2 and 192 ml min-1 and 120 ml min-1 m-2 and 225 ml min-1 and 123 ml min-1 m-2 and 196 ml min-1 and 119 ml min-1 m-2 and 212 ml min-1 and 118 ml min-1 m-2 and 241 ml min-1 and 127 ml min-1 m-2 and 344 ml min-1 and 172 ml min-1 m-2 and 314 ml min-1 and 179 ml min-1 m-2 and 459 ml min-1 and 248 ml min-1 m-2 and 218 ml min-1 and 128 ml min-1 m-2 and 182 ml min-1 and 91 ml min-1 m-2 and 101 ml min-1 and 59 ml min-1 m-2
  fe, fraction of the drug excreted unchanged: 0.109 and 0.095 and 0.428 and 0.181 and 0.197 and 0.122 and 0.219 and 0.133 and 0.128 and 0.239 and 0.210 and 0.177 and 0.090 and 0.125
